Test results from ChEMBL document CHEMBL1129122, “Synthesis and antimicrobial activity of 4-amino trinems” (1996).
In brackets after ≈: the same amount, converted by molar mass.

Tests used:
Type in all cases: functional
Staphylococcus aureus [1] = experiment: In vitro antibacterial activity against Staphylococcus aureus 663 strain
Staphylococcus aureus [2] = experiment: In vitro antibacterial activity against Staphylococcus aureus 853 strain
Enterococcus faecalis = experiment: In vitro antibacterial activity against Enterococcus faecalis 850 strain
Pseudomonas aeruginosa = experiment: In vitro antibacterial activity against Pseudomonas aeruginosa 1911 strain
Escherichia coli [3] = experiment: In vitro antibacterial activity against Escherichia coli 1850 strain
Escherichia coli [4] = experiment: In vitro antibacterial activity against Escherichia coli 1919 strain

| MIC (Staphylococcus aureus [1]) [µg/mL] | MIC (Staphylococcus aureus [2]) [µg/mL] | MIC (Enterococcus faecalis) [µg/mL] | MIC (Pseudomonas aeruginosa) [µg/mL] | MIC (Escherichia coli [3]) [µg/mL] | MIC (Escherichia coli [4]) [µg/mL] | SMILES |
| --- | --- | --- | --- | --- | --- | --- |
| 0.25 (≈ 0.939 µM) | 0.25 (≈ 0.939 µM) | 16 (≈ 60.1 µM) | 4 (≈ 15 µM) | 1 (≈ 3.76 µM) | 0.5 (≈ 1.88 µM) | C[C@@H](O)[C@H]1C(=O)N2C(C(=O)O)=C3[C@@H](N)CCC[C@@H]3[C@H]12 |
| 8 (≈ 23.9 µM) | 4 (≈ 12 µM) | 32 (≈ 95.7 µM) | 32 (≈ 95.7 µM) | 8 (≈ 23.9 µM) | 32 (≈ 95.7 µM) | C[C@@H](O)[C@H]1C(=O)N2C(C(=O)O)=C3[C@@H](NC4CCCC4)CCC[C@@H]3[C@H]12 |
| 0.25 (≈ 0.892 µM) | 0.5 (≈ 1.78 µM) | 16 (≈ 57.1 µM) | 4 (≈ 14.3 µM) | 2 (≈ 7.13 µM) | 0.5 (≈ 1.78 µM) | CN[C@H]1CCC[C@H]2C1=C(C(=O)O)N1C(=O)[C@H]([C@@H](C)O)[C@@H]21 |

More lines, now with the values behind:

| SMILES | MIC (Staphylococcus aureus [1]) [µg/mL] | MIC (Staphylococcus aureus [2]) [µg/mL] | MIC (Enterococcus faecalis) [µg/mL] | MIC (Pseudomonas aeruginosa) [µg/mL] | MIC (Escherichia coli [3]) [µg/mL] | MIC (Escherichia coli [4]) [µg/mL] |
| --- | --- | --- | --- | --- | --- | --- |
| C[C@@H](O)[C@H]1C(=O)N2C(C(=O)O)=C3[C@H](CCC[C@@H]3N(C)C)[C@H]12 | 0.25 (≈ 0.849 µM) | 0.25 (≈ 0.849 µM) | > 32 | 8 (≈ 27.2 µM) | 2 (≈ 6.79 µM) | 1 (≈ 3.4 µM) |
| CO[C@H]1CCC[C@H]2C1=C(C(=O)[O-])N1C(=O)[C@H]([C@@H](C)O)[C@@H]21.[Na+] [SANFETRINEM SODIUM] | 0.25 | 0.25 | 1 | > 32 | 0.5 | 0.5 |
